According to publication PMC7867085, “In Vitro and In Vivo Antitumor Activity of Indolo[2,3-b] Quinolines, Natural Product Analogs from Neocryptolepine Alkaloid” (Molecules, 2021):

Legend:
[1] = test system: Ehrlich ascites carcinoma (EAC) cells; test: In vitro cytotoxic activity, trypan blue dye exclusion; type: cell-based, mice; conditions: 3 h incubation at 37 °C
Protocol: The synthesized indoloquinoline analogs 6a–d were evaluated for their cytotoxic activity against Ehrlich ascites carcinoma (EAC), as depicted in Table 1. The EAC cells used in this study were supplied by National Cancer Institute, Cairo, Egypt. The cells were maintained in vivo in Swiss Albino female mice by intraperitoneal transplantation (0.2 mL of 2 × 10^6 cells/mL). EAC cells were aspirated from the peritoneal cavity of mice, washed with saline and given intraperitoneally to develop ascites tumor. Trypan blue dye exclusion technique was used to figure the viability percentage of EAC cells to assay the cytotoxic activity of the studied compounds. In brief, under completely sterile conditions, EAC cells were separated away from the mice abdomens. Hank’s balanced salt solution (HBSS) was used to wash the separated cells. Cells were put in a cooling centrifuge at 1500 rpm for 15 min; the produced granules were put back into suspension using HBSS, the mentioned steps were done in triplicate. Finally, a measured volume of RPMI 1640 was used to suspend the cells, followed by the addition of 10% fetal bovine serum, 10 µg/mL streptomycin and 100 U/mL penicillin. Consequently, the cell count was adjusted to 2 × 10^6 cells/mL from the prepared diluted cell suspension 0.2 mL was titrated in 96 flat-bottomed tissue culture plates. Serial concentrations of each tested compound were prepared and added in triplicate and incubated at 37 °C for 3 h in a 5% CO2 atmosphere. The IC50 parameter (half-maximum inhibitory concentration) was calculated using Trypan blue dye exclusion test, and then the cytotoxic effect was evaluated using control EAC cells. Thalidomide was used as a reference drug alongside the parent natural compound neocryptolepine I for comparison. Thalidomide was used as a reference drug because its mechanism of action is expected to be similar to the mechanism of action of neocryptolepine analogs as its anticancer action may be based on its antiangiogenic action, resulting from specific DNA intercalation as well as induce cell cycle arrest.
The percentage of EAC cell death of the synthesized derivatives was evaluated by trypan blue exclusion assay. In addition, the compounds 6a–d, as well as the reference drug thalidomide and the parent natural compound neocryptolepine (I), were evaluated through eight concentration levels. It is worth noting that this cytotoxicity was dose-dependent when compared to the reference drug, thalidomide and the control, which was treated with the corresponding dilutions of DMSO.
As a preparation step to perform cytotoxicity assay against the EAC cell line, thalidomide, parent neocryptolepine and the indoloquinoline compounds a 6a, 6b, 6c and 6d were dissolved in DMSO/saline (0.3:0.7) to prepare a solution of 10 mmol concentration. The stock solutions were stored at 4 °C and were used all over the assay. EAC cells were supplied by the National Cancer Institute, Cairo, Egypt. The cells were maintained in vivo in Swiss albino female mice by intraperitoneal transplantation (0.2 mL of 2 × 10^6 cells/mL). EAC cells were aspirated from the peritoneal cavity of mice, washed with saline, and given intraperitoneally to develop ascites tumor.
Trypan blue dye exclusion technique was used to figure the viability percentage of EAC cells to assay the cytotoxic activity of the studied compounds. In brief, under completely sterile conditions, EAC cells were separated away from the mice’s abdomen. Hank’s balanced salt solution (HBSS) was used to wash the separated cells. The cells were put in a cooling centrifuge at 1500 rpm for 15 min; the produced granules were put back into suspension using HBSS, the mentioned steps were done in triplicate. Finally, a measured volume of RPMI 1640 was used to suspend the cells, followed by the addition of 10% fetal bovine serum, 10 µg/mL streptomycin and 100 U/mL penicillin and the cell count was adjusted to 2 × 10^6 cells/mL. […]

EAC cells = test: Flow cytometric analysis of cell cycle distribution of EAC cells from treated mice; type: in vivo; conditions: EAC bearing mice, 100 mg/kg for 5 days; for Apoptotic Cells (sub-G1) / Non-Apoptotic Cells G0/G1 / Non-Apoptotic Cells G2/M / Non-Apoptotic Cells S: percentage of cells
Text: Flow cytometry is a technique that gives a clue to the mechanism by which cytotoxic agents affect the cell cycle by sorting and analyzing cells based on their content of DNA. Flow cytometry was used to further evaluate the effects of the indoloquinoline compounds modes-of-action to the cellular level, and we extended our studies on the cell cycle effects. To know whether cell cycle changes were aligned with the inhibition of cell growth, the cell cycle phase distribution was examined via flow cytometry. The cell cycle was analyzed in EAC-bearing mice treated with indoloquinoline analogs 6a, 6b, 6c and 6d (at a dose of 100 mg/kg for 5 constitutive days).
Flow cytometry was used to calculate the percentage of cells in each phase of the cell cycle in both positive control (exposed to 0.3% DMSO) and treated cells, results illustrated in (Table 10 and Figure 2). The influence of indoloquinoline derivatives on EAC cells indicated noticeable cell cycle specificity. In comparison with the positive control group, an appreciable change in the cell cycle occurred in giving the studied compounds. The sub-G1 population indicated apoptotic-associated chromatin degradation.
Fresh tumor tissue specimens from treated and untreated groups were transported to our laboratory in isotonic saline. The specimens were prepared following these steps: • The material was washed with isotone tris EDTA buffer. Then, the cell suspension was centrifuged at 1800 rpm for 10 min; the supernatant was then separated; • The cell is then fixed in ice-cold 96–100% ethanol (BDH) in approximately 1 mL for each sample; • Two milliliters of phosphate buffer solution (PBS) were used to wash the sample, which was recentrifuged at 1500 rpm for 5 min then the supernatant was thrown away; • Granules of the Tumor cells were put back into suspension using 200–500 µL of PBS. Into polystyrene tube, 100 µL of the suspension was transferred and then stained with 1.5 mL of propidium iodide. The tube is kept at 4 °C in a dark place for one hour; • The sample was run in the flow cytometer within 30 min after the addition of propidium iodide.
The flow cytometer was carried out with FACS caliber flow cytometer (Becton Dickinson, Sunnyvale, CA, USA) equipped with a compact air cocked low-power 15 m watt argon ion laser beam (488 nm). The average number of evaluated nuclei per specimen 20,000, and the number of nuclei scanned was 120 per second. DNA histogram derived from flow cytometry was obtained with a computer program for Dean and Jett’s mathematical analysis. Data analysis was conducted using DNA analysis program MPDFIT (Verity Software House, Inc. Box 247, Topsham, ME 04086 USA, version: 2.0, power Mac with 131,072 KB Registration No.: 42000960827-16193213 Date made: 16 September 1996). This software calculated the CV around the G0/G1 peak and the percentage of cells in each phase (G0/G1, S and G2/M) of the DNA cell cycle for each sample.

Row | Molecule | IC50 [1] [nM] | increase of G2/M fraction relative to positive control (EAC cells) [%] | increase of cells in S-phase relative to positive control (EAC cells) [%] | increase of sub-G1 group as compared to control (EAC cells) [%] | reduction of G0/G1 fraction relative to positive control (EAC cells) | Apoptotic Cells (sub-G1) (EAC cells) | Non-Apoptotic Cells G0/G1 (EAC cells) | Non-Apoptotic Cells G2/M (EAC cells) | Non-Apoptotic Cells S (EAC cells) | reduction of S-phase fraction relative to positive control (EAC cells) | IC50 ([1]; Mus musculus, Ehrlich) [nM] | increase of G0/G1 cell population relative to positive control (EAC cells) [%] | reduction of G2/M fraction relative to positive control (EAC cells) [%]
1 | 5(5-Methyl-5H-indolo[2,3-b] quinolin-11-ylamino) Pyrimidine-2,4(1H,3H)-dione [Compound 6c] | 0.33 | ~269.5 | ~411.3 | 683 | about 95.7% | 12.30 ± 0.15 | 3.30 ± 0.15 | 56.20 ± 0.1 | 40.50 ± 2.41 | – | – | – | –
2 | 5-Methyl-N-(4-methylpiperazin-1-yl)-5H-indolo[2,3-b] Quinolin-11-amine [Compound 6d] | 0.15 | 263.3 | – | 975 | 46% | 16.88 ± 0.6 | 41.30 ± 0.31 | 55.26 ± 0.06 | 3.44 ± 0.27 | 56.6% | – | – | –
3 | Cn1c2nc3ccccc3c-2c(Nc2ccc(Br)cc2F)c2ccccc21 [Compound 6a, N-(4-Bromo-2-fluorophenyl)-5-methyl-5H-indolo[2,3-b] Quinolin-11-amine] | – | – | – | 106 | – | 3.23 ± 0.01 | 90.27 ± 6.35 | 4.61 ± 0.6 | 5.12 ± 0.36 | about 35.3% | 0.17 | 17.4 | 69.7
4 | Cn1c2nc3ccccc3c-2c(NCCc2c[nH]c3ccccc23)c2ccccc21 [Compound 6b, N-(2-(1H-Indol-3-yl)ethyl)-5-methyl-5H-indolo[2,3-b] Quinolin-11-amine] | – | 26.2 | – | 1452 | – | 24.36 ± 0.01 | 78.44 ± 0.04 | 19.21 ± 0.09 | 2.35 ± 0.13 | about 70.3% | 0.064 | 2 | –
